# Source: patent US20110178092A1, “HIV-1 Protease Inhibitors” (priority 2005, published 2011)
# pKi: −log10 of the molar value.
# Key:
# Assay type in all cases: biochemical
# [1] = target: T1, wild type HIV-1 protease (Q7K) (Human immunodeficiency virus type 1 group M subtype B, UniProt P04585, Q495K); assay: FRET HIV-1 protease inhibition assay, wild type; details: for fold higher Ki than the corresponding inhibitor with isobutyl group at P1': cyclopropylmethyl at P1' vs isobutyl analog, wild type; for pKi: wild type HIV-1 protease (Q7K), FRET, in triplicate, read-out: Ki
# T1 construct: Wide type HIV-1 protease (Q7K)
# Procedure: Biological Evaluation of Selected Compounds of the Invention. HIV protease inhibitor activities were determined by fluorescence resonance energy transfer (FRET) method. […] Inhibitor binding dissociation constant (Ki value) was obtained by nonlinear regression fitting to the plot of initial velocity as a function of inhibitor concentration based on Morrison equation.
# (§1) The energy transfer donor (EDANS) and acceptor (DABCYL) were labeled at its two ends respectively to perform FRET. Fluorescence measurements were carried out on PTI fluorescence spectrophotometer (Photon Technology International) at 30° C. Excitation and emission wavelengths were set at 340 nm and 490 nm, respectively. Each reaction was recorded for about 10 min. Wide type HIV-1 protease (Q7K) and its MDR mutants M1 (L10I, G48V, I54V, L63P, V82A), M2 (D30N, L63P, N88D), and M3 (L10I, L63P, A71V, G73S, I84V, L90M) were desalted through PD-10 columns (Amersham Biosciences). Sodium Acetate (20 mM, pH 5) was used as elution buffer. Apparent protease concentrations were around 50 nM estimated by UV spectrophotometer (Shimadzu) at 280 nm. All inhibitors were dissolved in DMSO and diluted to appropriate concentrations. Protease (2 μL) and inhibitor (2 μL) or DMSO were mixed and incubated for 20-30 min at room temperature before initialing substrate cleavage reaction. Throughout this work, 150 μL of 1 μM substrate was used. Substrate buffer is composite of 0.1 M sodium acetate, 1 M sodium chloride, 1 mM ethylenediaminetetraacetic acid (EDTA), 1 mM dithiothreitol (DTT), 2% dimethylsulfoxide (DMSO) and 1 mg/mL bovine serum albumin (BSA) with an adjusted pH 4.7. Inhibitor binding dissociation constant (Ki) was obtained by nonlinear regression fitting (GraFit 5, Erithacus software) to the plot of initial velocity as a function of inhibitor concentrations based on Morrison equation.
# [2] = target: HIV-1 protease MDR mutant M1 (L10I, G48V, I54V, L63P, V82A) (Human immunodeficiency virus type 1 group M subtype B, UniProt P04585, G536V/I542V/L498I/L551P/Q495K/V570A); details: qualitative statement
# Source text: (§2) The mutant variants were selected by examining the Stanford HIV-1 Drug Resistance Database (http://hivdb.stanford.edu) of HIV-1 infected-patient sequences of viral isolates. […] (Wu, T. D. et al. J. Virol. 2003, 77, 4836-4847.) These MDR mutant variants are L10I, G48V, I54V, L63P, V82A (M1), D30N, L63P, N88D (M2), and L10I, L63P, A71V, G73S, I84V, L90M (M3).
# as §1
# [3] = target: HIV-1 protease MDR mutant M2 (D30N, L63P, N88D) (Human immunodeficiency virus type 1 group M subtype B, UniProt P04585, D518N/L551P/N576D/Q495K); details: qualitative statement
# Source text: as §2, §1
# [4] = target: HIV-1 protease MDR mutant M3 (L10I, L63P, A71V, G73S, I84V, L90M) (Human immunodeficiency virus type 1 group M subtype B, UniProt P04585, A559V/G561S/I572V/L498I/L551P/L578M/Q495K); details: qualitative statement
# Source text: as §2, §1
SMILES,fold higher Ki than the corresponding inhibitor with isobutyl group at P1' [1],pKi [1],other results
"COc1cccc(S(=O)(=O)N(CC2CC2)C[C@@H](O)[C@H](Cc2ccccc2)NC(=O)[C@@H]2CN(c3cccc(F)c3)C(=O)O2)c1 [36b, (5S)—N-[(1S,2R)-1-Benzyl-3-[(cyclopropylmethyl)[(3-methoxyphenyl)sulfonyl]amino]-2-hydroxypropyl]-3-(3-fluorophenyl)-2-oxo-oxazolidine-S-carboxamide]",about 3 fold,9.59,–
"COc1cccc(S(=O)(=O)N(CC2CC2)C[C@@H](O)[C@H](Cc2ccccc2)NC(=O)[C@@H]2CN(c3ccc(F)c(F)c3)C(=O)O2)c1 [36c, (5S)—N-[(1S,2R)-1-Benzyl-3-[(cyclopropylmethyl)[(3-methoxyphenyl)sulfonyl]amino]-2-hydroxypropyl]-3-(3,4-difluorophenyl)-2-oxo-oxazolidine-S-carboxamide]",~9 fold,9.24,–
"COc1cccc(S(=O)(=O)N(CC2CC2)C[C@@H](O)[C@H](Cc2ccccc2)NC(=O)[C@@H]2CN(c3ccc(C(C)=O)cc3)C(=O)O2)c1 [36f, (5S)-3-(4-Acetylphenyl)-N-[(1S,2R)-1-Benzyl-3-[(cyclopropylmethyl)[(3-methoxy-phenyl)sulfonyl]amino]-2-hydroxypropyl]-2-oxo-oxazolidine-S-carboxamide]",~200 fold,10.10,–
"Cc1cccc(C)c1OCC(=O)N[C@@H](Cc1ccccc1)[C@@H](O)C[C@H](Cc1ccccc1)NC(=O)[C@H](C(C)C)N1CCCNC1=O [LPV, lopinavir]",–,–,activity against M1 mutant relative to wild type (in words) [2]: significantly loses activity; activity against M2 mutant relative to wild type (in words) [3]: retains high affinity; activity against M3 mutant relative to wild type (in words) [4]: significantly loses activity
"CC(C)CN(C[C@@H](O)[C@H](Cc1ccccc1)NC(=O)O[C@H]1CCOC1)S(=O)(=O)c1ccc(N)cc1 [amprenavir, reference compound]",–,–,"inhibitory activity against wild type HIV-1 protease (in words) ([1]; wild type HIV-1 protease, qualitative statement): Ki value for wild type is also relatively high"
